Patent publication US20250197846A1, “TAGMENTATION WORKFLOW” (ILLUMINA, INC., priority 2022, published 2025)
Entries after “also recorded” stand apart in the source; their conditions may differ.

System: Tn5 transposase enzyme bound to tagmented DNA (tagmented DNA complex), Mg^2+ cofactor
Assay: Removal of Tn5 transposase from tagmented DNA complex after tagmentation with Mg2+ cofactor (library yield and insert size profile after PCR)
Text: As such Mg^2+ was the divalent cation cofactor.
In the workflow for experiment A: DNA was first tagmented, appending the transferred strand of the adaptor to the 5′ ends of the tagmented DNA, and then treated with water (not sodium dodecyl sulfate (SDS)), thus keeping the Tn5 bound to the tagmented DNA. The tagmented DNA complex was washed and subjected to PCR (including high temperature heating which may dissociate the Tn5) to append adaptor sequences to the 3′ ends of the tagmented DNA.
In the workflow for experiment, B: DNA was first tagmented, appending the transferred strand of the adaptor to the 5′ ends of the tagmented DNA, and then was treated with SDS to denature the Tn5 enzyme, thus dissociating it from the tagmented DNA complex. The SDS was washed away and the tagmented DNA fragments were exposed to PCR to append adaptor sequences to the 3′ ends of the tagmented DNA.
Some of the supernatant was analyzed using a TapeStation. The size profile and yield of the tagmented DNA fragments from experiments A and B were measured using the TapeStation.
As such, Mg^2+ was the divalent cation cofactor.
In the workflow for experiment A: DNA was first tagmented, appending the transferred strand of the adaptor to the 5′ ends of the tagmented DNA. Tn5 was removed by adding 1% SDS and incubating for 5 minutes at 25° C.
In the workflow for experiment B: DNA was first tagmented, appending the transferred strand of the adaptor to the 5′ ends of the tagmented DNA. […] In experiment B, the transposase removal fluid included 100 mM Tris-HCl, pH 8.6, 100 mM NaCl, and 0.6 mM EDTA.
In the workflow for experiments A and B: DNA was first tagmented, appending the transferred strand of the adaptor to the 5′ ends of the tagmented DNA. Tn5 was removed by adding 1% SDS and incubating for 5 minutes at 25° C.
In the workflow for experiments C and D: DNA was first tagmented, appending the transferred strand of the adaptor to the 5′ ends of the tagmented DNA.
For each of these experiments, the tagmentation buffer included water, 4% DMF, 2 mM magnesium acetate, and 4 mM tris acetate salt, pH 7.6. As such Mg^2+ was the divalent cation cofactor.
In the workflow for experiment B: DNA was first tagmented, appending the transferred strand of the adaptor to the 5′ ends of the tagmented DNA. […] In experiment B, the transposase removal fluid included 140 mM Tris, pH 8.8, 100 mM KCl, and 1.8 mM EDTA. […] The sample was processed under Extension-Ligation and PCR-cycling conditions with a ligase, non-strand displacing polymerase and Q5 polymerase in a buffer base with 2.4 mM Magnesium.
In the workflow for experiment A: DNA was first tagmented using the Mg^2+ tagmentation buffer described in this example, appending the transferred strand of the adaptor to the 5′ ends of the tagmented DNA. Tn5 was removed by adding 1% SDS and incubating for 5 minutes at 25° C.
In the workflow for experiment D: DNA was first tagmented using the Mg^2+ tagmentation buffer described in this example, appending the transferred strand of the adaptor to the 5′ ends of the tagmented DNA.
In the workflow for experiment A: DNA was first tagmented, appending the transferred strand of the adaptor to the 5′ ends of the tagmented DNA. […] In experiment A, the transposase removal fluid included 500 mM Tris, pH 8.6, 100 mM NaCl, and 15 mM 2-hydroxy-4-oxo-4-thiophen-2-yl-but-2-enoic acid integrase inhibitor. […]

| Structure (SMILES) | Dissociation of Tn5 enzyme from tagmented DNA complex (yield and insert size profile, FIG. 5) (Example 2, supernatant discarded, 100 mM Tris-HCl pH 8.6, 100 mM NaCl, 0.6 mM EDTA, 1 minute at 60° C., compared with 1% SDS) | Dissociation of Tn5 from tagmented DNA complex (size profile and yield, FIG. 6) (Example 3, applied directly without removing supernatant, 100 mM Tris-HCl pH 8.6, 100 mM NaCl, 6 mM EDTA, 1 minute at 60° C.) | Dissociation of Tn5 from tagmented DNA complex (size profile and yield, FIG. 7) (Example 4, 140 mM Tris pH 8.8, 100 mM KCl, 1.8 mM EDTA, 1 minute at 60° C., extension-ligation and PCR added directly with 2.4 mM magnesium) | Tn5 removal from the tagmented product complex (yield and insert size profile, FIG. 4) (Example 1, SDS treatment versus water and high temperature heating of PCR, Mg2+ cofactor, sulfate) |
| --- | --- | --- | --- | --- |
| O=C(O)CN(CCN(CC(=O)O)CC(=O)O)CC(=O)O [EDTA, ethylenediaminetetraacetic acid] | sufficient to replace SDS as a reagent for dissociating the Tn5 enzyme from a tagmented DNA complex | can effectively dissociate Tn5 from the tagmented DNA complex | can dissociate Tn5 from the tagmented DNA complex | – |
| CCCCCCCCCCCCOS(=O)(=O)[O-].[Na+] [SDS, sodium dodecyl sulfate] | – | – | – | more effective than heating alone; also recorded: more effective in removing Tn5 from the tagmented product complex than the high temperature heating used in PCR |
